Consider 80 compounds from the METLIN SMRT retention time set (Domingo-Almenara et al. 2019).

The nature of the data set: gradient 5% acetonitrile 3 min, to 50% in 2 min, to 85% in 15 min, held 3 min, 100 µL/min. Particulars: column: Zorbax Extend-C18 2.1 x 50 mm; eluents: water / acetonitrile, 0.1% formic acid. The method in brief: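 Over 3 months, pure standards in mixtures of ~100 molecules were run by HPLC coupled to a quadrupole time-of-flight mass spectrometer in positive and negative ionization mode. The column was a Zorbax Extend-C18 (2.1 × 50 mm, 1.8 μm) at 100 μL/min, eluted with water and acetonitrile each holding 0.1% formic acid, with 40 μL dead and 900 μL dwell volumes. Retention time was determined from adduct peaks chosen by software and checked manually.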
For `Cc1ccc(NC(=O)C2(Cc3cccnc3)CCCCC(=O)N2)cc1` (stereo not given), the RP-LC retention time was 611 s. With `Cc1ccc(NC(=O)c2cnc(-c3ccccc3)nc2-c2ccncc2)c(Br)c1` the figure was 987 s; with `Cc1ccc(CNC(=O)c2c(C)oc3nc(C)nc(N4CCOCC4)c23)cc1`, 787 s. Under `CC(C)Oc1ccc(CN2C(=O)C3(CCOCC3)CC2c2nnnn2C(C)(C)C)cc1` (stereo not given) stands 875 s; under `Cc1c(-c2ccc(-c3ccccc3F)cc2)nc2ccc(F)cc2c1C(=O)O`, 967 s. Under `CCCc1noc(-c2ccc(-n3ncc(C(=O)N4CCC(C)CC4)c3C)nc2)n1` stands 1130 s; under `CCCn1ccc2sc(C)c(C(=O)NC3CCCC3)c2c1=O`, 760 s; under `Cc1oc(-c2cccc(Cl)c2)nc1COc1cc(C)c2c(C)nn(C)c2n1`, 1340 s. In the case of `Cc1cc(/C=C2\SC(=S)NC2=O)cc(C)c1O`, the RP-LC retention time is 906 s.

The compound `CC(Cc1ccccc1)(NC(=O)CN)c1ccccc1` (stereo not given) yielded an RP-LC retention time of 730 s.

Compound `Cc1ccc(-c2csc(NC(=O)CCc3nc(CSc4nc5ccccc5o4)no3)n2)cc1` returned an RP-LC retention time of 1130 s. Under `CCOC(=O)C1CCN(c2c(S(=O)(=O)c3ccccc3)cnc3ccc(C)cc23)CC1` stands 964 s. Under `CC(C)n1cnc(S(=O)(=O)N2CCC(C(=O)NC3CCCCCC3)CC2)c1` stands 736 s; under `CCc1nc(OCC(=O)Nc2ccccc2Cl)c2ccccc2n1`, 831 s; under `COc1ccc(NC(=O)CCc2cccc3[nH]ccc23)cc1OC`, 755 s. With `Cc1cccc(CN2C(=O)CN(S(C)(=O)=O)CC2(C)C(=O)NCc2ccc(F)cc2)c1` (stereo not given) the figure was 856 s; with `Cc1ccc(-c2noc(-c3nc(Cc4ccccc4)no3)n2)cc1`, 1240 s.

In turn, `CN1C(=O)c2cc(C(=O)NCc3cccc(Cl)c3)nn2CC1(C)C(=O)NC1CCCCC1` (stereo not given) showed an RP-LC retention time of 793 s.

As to `CCOc1ccc(N2C=C(C(=O)OC)S(=O)(=O)c3ccc(Br)cc32)cc1`, the RP-LC retention time came out at 1040 s. Under `CCCNC(=O)N1CCC(CCOc2ccncc2)CC1` stands 571 s; under `Cc1ccc(-c2noc(CN3N=NC4C(=O)N(c5cccc(F)c5)C(=O)C43)n2)cc1` (stereo not given), 1020 s.

As to `CCOc1ccccc1CNC(=O)C1CCCN(c2ccc(=O)n(-c3ccc(C)c(Cl)c3)n2)C1` (stereo not given), the RP-LC retention time is 828 s. `CC1=C(c2ccc(Cl)cc2)S(=O)(=O)N=C1N1CCCN(C(=O)C(C)(C)C)CC1` registered an RP-LC retention time of 900 s.

The compound `COc1ccc(S(=O)(=O)NCCc2cn(C)c3ncccc23)cc1Cl` came in with an RP-LC retention time of 760 s. Under `CC(C)C(=O)Nc1nc(-c2ccc3c(c2)N(C)C(=O)CO3)cs1` stands 787 s; under `CN1CCN(CCCNC(=O)C2CCN(S(=O)(=O)c3ccc4c(c3)sc(=O)n4C)CC2)CC1`, 580 s; under `O=C(Nc1cccc(F)c1)C1CCN(S(=O)(=O)c2cc(-c3noc(C4CC4)n3)cs2)CC1`, 1040 s. Under `Cn1c(=O)c(=O)n(C)c2cc(N3CCCCC3)c(NC(=O)c3ccco3)cc21` stands 840 s.

`Cn1c(=O)c2c(nc(N3CCCCC3)n2C)n(C)c1=O`: the RP-LC retention time turned out to be 794 s. Consider `O=C(NCc1csc(-c2cccs2)n1)C1CCN(S(=O)(=O)c2cccc(Cl)c2)CC1`, for which the RP-LC retention time was 927 s. Under `Cc1cc(N(C)C)n2nc(CN3CCN(c4ccccc4Cl)CC3)nc2n1` stands 627 s.

As to `COc1ccc(-c2csc(Nc3cccc(C)n3)n2)cc1`, the RP-LC retention time stood at 821 s. Under `Cc1ccc2[nH]c(C(=O)NCc3ccncc3)cc2c1` stands 628 s; under `Cc1ccccc1CNC(=O)C1(C)CCCN(C(=O)NCCc2ccccc2)C1` (stereo not given), 897 s; under `COc1ccc(N2C(=O)C3N=NN(Cc4nc(-c5ccccc5C)no4)C3C2=O)cc1` (stereo not given), 976 s. With `COCCOC1CCC12CCN(Cc1ccccc1C#N)CC2` (stereo not given) the figure was 610 s; with `CN(C)S(=O)(=O)c1ccc(C(=O)N2Cc3nn(C(C)(C)C)c(-n4cccc4)c3C2)cc1`, 888 s. Under `Cc1noc2ncn(CC(=O)NCc3cccc(Br)c3)c(=O)c12` stands 779 s; under `O=C(Nc1ccc(-c2nc(-c3ccc(F)cc3)no2)cc1)c1cccs1`, 1170 s; under `COc1ccc(-c2noc(Cc3nnc(-c4ccc(C)c(C)c4)o3)n2)cc1`, 1090 s.

In the case of `Cc1ccc(-c2cc(N3CCOCC3)c3cc(NC(=O)C4CC4)ccc3n2)cc1`, the RP-LC retention time was determined as 701 s. Under `C=CCN1C(=O)COc2ccc(-c3csc(NC(=O)c4cccc(C)c4)n3)cc21` stands 1060 s; under `Cc1cc(C)n(-c2ccnc(NCc3ccc(Br)cc3)n2)n1`, 946 s; under `CCOC(=O)Cn1c(=O)c2c(nc3n2CC(C)CN3c2ccc(OCC)cc2)n(C)c1=O` (stereo not given), 958 s.

For the compound `CCOCCCNC(=O)C1c2c(n(C)c3ccccc23)SCC(=O)N1Cc1ccc(OC)cc1` (stereo not given), the RP-LC retention time is 875 s.

Take `CC(C)NC(=O)Cn1cccc(-c2nc(-c3ccc(Br)cc3)no2)c1=O`: the RP-LC retention time was 824 s. With `O=C(NCc1ccccc1)C1CCc2sc(C(=O)N3CCCC3)cc2C1` (stereo not given), the RP-LC retention time was 702 s.

`COc1ccc2nc(NC3=NCN(CCc4ccc(OC)c(OC)c4)CN3)nc(C)c2c1`: the RP-LC retention time was found to be 709 s. Under `CC1Oc2ccc(-c3csc(NC(=O)c4ccccc4)n3)cc2NC1=O` (stereo not given) stands 862 s; under `CCOCCCNC(=O)C1CCN(c2nnc3cccc(C)n23)CC1`, 593 s; under `COc1ccc(OC)c(NC(=O)c2nc(N(C)C)c3c(C)cc(C)nc3n2)c1`, 676 s. Under `CCCN1C(=O)COc2ccc(-c3noc(CNS(=O)(=O)c4ccccc4)n3)cc21` stands 888 s; under `CCc1cc(=O)n(CC(=O)NCc2ccccc2OC)c(N)n1`, 602 s; under `CC(NC(=O)c1cnc(-c2ccccc2)nc1-c1ccncc1)c1ccc(F)cc1` (stereo not given), 868 s. Under `Cc1ccc2ncn(C3CCN(S(=O)(=O)c4cccc(Cl)c4)CC3)c(=O)c2c1` stands 963 s; under `COCc1nc(CCNC(=O)C2CCCO2)no1` (stereo not given), 593 s. For the compound `CCOC(=O)c1ccc(NC(=O)N2CCCC2c2cc(CC)no2)cc1` (stereo not given), the RP-LC retention time was determined as 856 s. Regarding `CCc1nccn1Cc1noc(-c2ccc(C)cc2)n1`, the RP-LC retention time stood at 648 s.

Consider `COc1ccc(OC)c(NC(=O)c2sc(-c3cn(C(C)C)c4ncccc34)nc2C)c1`, for which the RP-LC retention time is 1030 s. The compound `Cc1cc(C)c(CNC(=O)C2CCN(c3cnc4nccnc4c3)CC2)c(C)c1` showed an RP-LC retention time of 793 s. In turn, `CC(C)(C)c1ccc(-c2nc(N3CCCC3)c3ccccc3n2)cc1` returned an RP-LC retention time of 906 s. For the compound `CCOC(=O)c1c(C)[nH]c(C(=O)N2CCCC(C(=O)NC3CCCCCC3)C2)c1C` (stereo not given), the RP-LC retention time was determined as 892 s.

Take `CCOc1ccc(Cl)cc1S(=O)(=O)N1CCC(C(=O)NCCO)CC1`: the RP-LC retention time was 692 s. As to `O=C(NCc1cccc(Cl)c1)C1CCN(c2cnc3nccnc3c2)CC1`, the RP-LC retention time was found to be 697 s.

As to `COc1ccc(OC)c(CNC(=O)c2nnc(-c3ccc(S(=O)(=O)N4CCOCC4)cc3)o2)c1`, the RP-LC retention time amounted to 826 s. Under `CC(C)C(=O)NCCc1csc(C2CCCN(C(=O)c3cc4ccccc4[nH]3)C2)n1` (stereo not given) stands 803 s; under `COC(=O)c1cccc(NS(=O)(=O)c2cc3n(c2)CCN(C)C3=O)c1`, 683 s; under `CC(C)Cc1cc(-c2nn3c(COc4ccc(Br)cc4)nnc3s2)n[nH]1`, 1030 s.

`O=C(NCc1csc(C2CCN(C(=O)c3ccc(F)cc3F)CC2)n1)C1CC1` came in with an RP-LC retention time of 697 s. Under `Nc1sc(SCC(=O)NCc2ccc(F)cc2)nc1-c1ccccc1` stands 796 s; under `COc1ccc(N2CCN(c3cc(SCC(=O)Nc4ccc(F)cc4)ncn3)CC2)cc1`, 1100 s; under `O=c1ccc(N2CCC(NS(=O)(=O)c3cccc(F)c3)C2)nn1CC1CC1` (stereo not given), 773 s. With `CN1c2ccc(F)cc2C(=O)NC12CCN(C(=O)c1cccc(F)c1)CC2` the figure was 751 s.

For the compound `CCOC(=O)Cn1c(=O)c2c(nc3n2CC(C)CN3c2ccc(OC)cc2)n(C)c1=O` (stereo not given), the RP-LC retention time stood at 888 s. With `O=C(Cn1c(=O)oc2ccccc21)N1CCC(Oc2nc3c(Cl)cccc3s2)CC1` the figure was 979 s; with `Cc1ccc(-c2nc(-c3ccc4c(c3)ncn4CCN3CCOCC3)no2)cc1C`, 685 s. `Cc1cc(F)ccc1NC(=O)c1nnn(-c2ccc(F)cc2)c1-c1cccnc1` yielded an RP-LC retention time of 915 s.

Consider `Cc1sc(-c2cc(C(F)(F)F)[nH]n2)cc1S(=O)(=O)N1CCCCCC1`, for which the RP-LC retention time came to 1110 s. Under `CCCCNC(=O)C1CCC(=O)N(c2ccc(OC)cc2)C1c1ccc(F)cc1` (stereo not given) stands 757 s; under `COc1ccc2nc(-c3ccc(NS(=O)(=O)c4ccccc4C(F)(F)F)cc3)cn2n1`, 792 s.
